Measurements as given in patent US9695155B2, “Herbicidal substituted pyrimidinyloxy benzene compounds” (E. I. DU PONT DE NEMOURS AND COMPANY, priority 2013, dated 2017).

Tests used:
chickweed = assay: Test D postemergence; assay type: in vivo, Stellaria media
Method in brief: (§1)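 Values are 0–100 visual control ratings (0 none, 100 complete) given 7–21 days after application. Soil for preemergence was silt loam; postemergence plants stood 2–18 cm tall.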

chamomile = assay: Test D postemergence; assay type: in vivo, Matricaria inodora
Method in brief: as §1

speedwell = assay: Test D postemergence; assay type: in vivo, Veronica persica
Method in brief: as §1

lambsquarters [1] = assay: Test D preemergence; assay type: in vivo, Chenopodium album
Method in brief: as §1

field violet = assay: Test D preemergence; assay type: in vivo, Viola arvensis
Method in brief: as §1

pigweed [2] = assay: Test D preemergence; assay type: in vivo, Amaranthus retroflexus
Method in brief: as §1

pigweed [3] = assay: Test D postemergence; assay type: in vivo, Amaranthus retroflexus
Method in brief: as §1

lambsquarters [4] = assay: Test D postemergence; assay type: in vivo, Chenopodium album
Method in brief: as §1

wild oat = assay: Test D preemergence; assay type: in vivo, Avena fatua
Method in brief: as §1

kochia = assay: Test D preemergence; assay type: in vivo, Kochia scoparia
Method in brief: as §1

wild buckwheat = assay: Test D preemergence; assay type: in vivo, Polygonum convolvulus
Method in brief: as §1

[5] = 31 g ai/ha, scale 0 to 100 (0 no effect, 100 complete control)
[6] = 62 g ai/ha, scale 0 to 100 (0 no effect, 100 complete control)
[7] = 125 g ai/ha, scale 0 to 100 (0 no effect, 100 complete control)
[8] = 16 g ai/ha, scale 0 (no effect) to 100 (complete control)

## FCc1cccc(Oc2ncc(Cl)cn2)c1-n1cc(I)cn1 [Compound 245]
chickweed; 16 g ai/ha, scale 0-100
  Plant response rating, Chickweed: 45
chickweed; [5]
  Plant response rating, Chickweed: 75
chickweed; [6]
  Plant response rating, Chickweed: 95
chickweed; [7]
  Plant response rating, Chickweed: 98
chamomile; 16 g ai/ha, scale 0-100
  Plant response rating, Chamomile: 30
chamomile; [5]
  Plant response rating, Chamomile: 30
chamomile; [6]
  Plant response rating, Chamomile: 45
chamomile; [7]
  Plant response rating, Chamomile: 40
speedwell; 16 g ai/ha, scale 0-100
  Plant response rating, Speedwell: 100
speedwell; [5]
  Plant response rating, Speedwell: 100
speedwell; [6]
  Plant response rating, Speedwell: 100
speedwell; [7]
  Plant response rating, Speedwell: 100
Lambsquarters [1]; [8]
  Plant response rating, Lambsquarters: 85
Lambsquarters [1]; 31 g ai/ha, scale 0-100
  Plant response rating, Lambsquarters: 100
Lambsquarters [1]; 62 g ai/ha, scale 0-100
  Plant response rating, Lambsquarters: 100
Lambsquarters [1]; 125 g ai/ha, scale 0-100
  Plant response rating, Lambsquarters: 100
Field violet; [8]
  Plant response rating, Field Violet: 55
Field violet; 31 g ai/ha, scale 0-100
  Plant response rating, Field Violet: 95
Field violet; 62 g ai/ha, scale 0-100
  Plant response rating, Field Violet: 100
Field violet; 125 g ai/ha, scale 0-100
  Plant response rating, Field Violet: 100
Pigweed [2]; [8]
  Plant response rating, Pigweed: 98
Pigweed [2]; 31 g ai/ha, scale 0 (no effect) to 100 (complete control)
  Plant response rating, Pigweed: 100
Pigweed [2]; 125 g ai/ha, scale 0-100
  Plant response rating, Pigweed: 100
Pigweed [3]; 16 g ai/ha, scale 0-100
  Plant response rating, Pigweed: 95
Pigweed [3]; [5]
  Plant response rating, Pigweed: 95
Pigweed [3]; [6]
  Plant response rating, Pigweed: 100
Pigweed [3]; [7]
  Plant response rating, Pigweed: 100
Lambsquarters [4]; 16 g ai/ha, scale 0-100
  Plant response rating, Lambsquarters: 65
Lambsquarters [4]; [5]
  Plant response rating, Lambsquarters: 80
Lambsquarters [4]; [6]
  Plant response rating, Lambsquarters: 85
Lambsquarters [4]; [7]
  Plant response rating, Lambsquarters: 95
Wild oat; [8]
  Plant response rating, Oat, Wild: 0
Wild oat; 31 g ai/ha, scale 0-100
  Plant response rating, Oat, Wild: 5
Wild oat; 62 g ai/ha, scale 0-100
  Plant response rating, Oat, Wild: 20
Wild oat; 125 g ai/ha, scale 0-100
  Plant response rating, Oat, Wild: 15
kochia; [8]
  Plant response rating, Kochia: 0
kochia; 31 g ai/ha, scale 0-100
  Plant response rating, Kochia: 0
kochia; 62 g ai/ha, scale 0-100
  Plant response rating, Kochia: 75
kochia; 125 g ai/ha, scale 0-100
  Plant response rating, Kochia: 75
Wild buckwheat; [8]
  Plant response rating, Buckwheat, Wild: 25
Wild buckwheat; 31 g ai/ha, scale 0-100
  Plant response rating, Buckwheat, Wild: 0
Wild buckwheat; 62 g ai/ha, scale 0-100
  Plant response rating, Buckwheat, Wild: 25
Wild buckwheat; 125 g ai/ha, scale 0-100
  Plant response rating, Buckwheat, Wild: 35
